Data published in patent US20120202806A1, “Novel Pyrimidine- And Triazine-Hepcidine Antagonists” (VIFOR (INTERNATIONAL) AG, priority 2009, published 2012).

The molecules below were run against T1, human ferroportin (Fpn) (Homo sapiens, UniProt Q9NP59) (assay: Ferroportin internalisation assay (inhibition of hepcidin-induced internalisation of Fpn in MDCK-FPN-HaloTag cells)). Settings: 100 nM hepcidin, overnight incubation, 11 concentrations 0.04 to 40 μM.
T1 construct: expressed in transfected cells
T1 sequence (Q9NP59 1-571): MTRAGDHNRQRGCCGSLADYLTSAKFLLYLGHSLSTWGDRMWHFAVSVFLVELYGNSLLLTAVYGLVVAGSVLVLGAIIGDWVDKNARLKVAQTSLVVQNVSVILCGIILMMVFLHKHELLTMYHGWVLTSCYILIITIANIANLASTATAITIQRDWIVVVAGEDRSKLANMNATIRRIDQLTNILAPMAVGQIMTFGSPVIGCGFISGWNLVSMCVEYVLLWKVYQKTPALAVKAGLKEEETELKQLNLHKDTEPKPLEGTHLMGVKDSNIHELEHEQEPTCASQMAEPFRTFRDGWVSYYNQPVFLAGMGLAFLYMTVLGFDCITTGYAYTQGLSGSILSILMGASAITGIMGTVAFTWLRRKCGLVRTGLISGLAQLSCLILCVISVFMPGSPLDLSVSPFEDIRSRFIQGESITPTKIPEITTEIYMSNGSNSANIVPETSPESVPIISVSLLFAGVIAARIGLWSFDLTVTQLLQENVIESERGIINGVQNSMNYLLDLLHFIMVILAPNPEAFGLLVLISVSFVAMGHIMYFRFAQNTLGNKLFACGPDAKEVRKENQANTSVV
Assay type: cell-based
Protocol: The antagonistic effect against hepcidin of the pyrimidine and triazine compounds of the present invention was determined by means of the ferroportin internalisation assay described below.
Low molecular weight organic compounds which counteract the biological effects of hepcidin on its receptor, the iron exporter ferroportin (Fpn) were identified on the basis of their ability to inhibit hepcidin-induced internalisation of Fpn in living cells. A stable cell line (Madin-Darby Canine Kidney, MDCK) was produced for this purpose to express constitutively human ferroportin which is fused recombinantly with a fluorescent reporter protein (HaloTag®, Promega Corp.) at its C terminus. The internalisation of Fpn was monitored by marking these cells with fluorescent ligands (HaloTag® TMR, tetramethylrhodamine) which attach themselves covalently to the HaloTag reporter gene fused with the Fpn. […] Optimised image analysis algorithms were used to detect the cell surface and to quantify the corresponding membrane fluorescence associated with the Fpn-HaloTag fusion protein.

IC50 | Compound
> 50 µM | COc1cnc(-c2ccccn2)nc1N(C)Cc1ccccc1 [Example 24, Benzyl-(5-methoxy-2-pyridin-2-yl-pyrimidin-4-yl)-methyl-amine]
< 50 µM | COc1cnc(CN)nc1NC(C)C [Example 50, (2-Aminomethyl-5-methoxy-pyrimidin-4-yl)-isopropyl-amine]

Same assay, conditions: 10 μM substance, 100 nM hepcidin, inhibition of Fpn internalisation, read-out: I [%] (Median Inhibition [%] at 10 μM substance conc.)

Compound | inhibition at 10 µM
COc1ccc(O)c(/C=N/Nc2nc(N3CCOCC3)nc(N3CCOCC3)n2)c1 [Example 9, 2-[(4,6-Dimorpholin-4-yl-[1,3,5]triazin-2-yl)-hydrazonomethyl]-4-methoxy-phenol] | > 50%
Oc1cccc(/C=N/Nc2cc(N3CCOCC3)nc(N3CCOCC3)n2)c1 [Example 5, 3-[(2,6-Dimorpholin-4-yl-pyrimidin-4-yl)-hydrazonomethyl]-phenol] | > 50%
Cc1nc(N/N=C/c2ccc(O)cc2O)cc(N2CCOCC2)n1 [Example 6, 4-[(2-Methyl-6-morpholin-4-yl-pyrimidin-4-yl)-hydrazonomethyl]-benzene-1,3-diol] | > 50%
Cc1ccc2cc(Nc3nc(N4CCOCC4)nc(N4CCOCC4)n3)ccc2n1 [Example 12, (4,6-Dimorpholin-4-yl-[1,3,5]triazin-2-yl)-(2-methyl-quinolin-6-yl)-amine] | < 50%
Oc1ccccc1/C=N/Nc1cc(N2CCOCC2)nc(N2CCOCC2)n1 [Example 7, 2-[(2,6-Dimorpholin-4-yl-pyrimidin-4-yl)-hydrazonomethyl]-phenol] | > 50%
c1ccc(N(c2ccccc2)c2nc(N3CCOCC3)nc(-n3ccnc3)n2)cc1 [Example 10, (4-Imidazol-1-yl-6-morpholin-4-yl-[1,3,5]triazin-2-yl)-diphenyl-amine] | > 50%

Now from value to molecule:

inhibition at 10 µM | Compound
< 50% | Nc1nc(-c2ccccn2)nc(N)c1Cc1ccccc1F [Example 3, 5-(2-Fluoro-benzyl)-2-pyridin-2-yl-pyrimidine-4,6-diamine]
< 50% | Cc1nc(-c2ccccn2)nc(NCCNc2ccc(C(F)(F)F)cn2)c1Cl [Example 4, N-(5-Chloro-6-methyl-2-pyridin-2-yl-pyrimidin-4-yl)-N′-(5-trifluoromethyl-pyridin-2-yl)-ethane-1,2-diamine]
< 50% | C/C(=N\Nc1cc(N2CCOCC2)nc(C)n1)c1ccc(F)cc1 [Example 8, N-[1-(4-Fluoro-phenyl)-ethylidene]-N′-(2-methyl-6-morpholin-4-yl-pyrimidin-4-yl)-hydrazine]
< 50% | CN(c1ccccc1)c1nc(N2CCOCC2)nc(-n2ccnc2)n1 [Example 11, (4-Imidazol-1-yl-6-morpholin-4-yl-[1,3,5]triazin-2-yl)-methyl-phenyl-amine]
> 50% | COc1cnc(-c2ccccn2)nc1NC(C)C [Example 1, Isopropyl-(5-methoxy-2-pyridin-2-yl-pyrimidin-4-yl)-amine]
< 50% | Cc1nc(-c2ccccn2)nc(NCCNc2cc(C(F)(F)F)ccn2)c1Cl [Example 2, N-(5-Chloro-6-methyl-2-pyridin-2-yl-pyrimidin-4-yl)-N′-(4-trifluoromethyl-pyridin-2-yl)-ethane-1,2-diamine]
